Measured values reported in patent US20210290676A1, “IMPROVING THE EFFICACY AND SAFETY OF ADOPTIVE CELLULAR THERAPIES” (University of Southern California, priority 2018, published 2021).

Legend:
Assay type in all cases: cell-based, human
[1] = tested on: CD45RA+CCR7+CD62L+ T cells; test: Flow cytometry for CD45RA, CCR7 and CD62L on inhibitor-treated T cells (all T cells); conditions: for % of CD62L+CCR7+ double positive cells out of CD45RA+ cells in live T cell population: 13 days treatment; for GATE P6 CD45RA(FITC)+, CCR7 (PE)+, CD62L(APC): cells cultured for 14 days
Method: (§1) DAY 0: Blood was obtained from unidentified donor. After RBC lysis, PBMC were collected using Ficoll-Hypaque separation. […] T cells were cultured in three different conditions: • 1. XVIVO 15 medium (Lonza) with IL2 50 IU/ml, CD3 antibody (30 ng/ml) and CD28 antibody (30 ng/ml). • 2. XVIVO 15 medium (Lonza) with CD3 antibody (30 ng/ml) and CD28 antibody (30 ng/ml). • 3. XVIVO 15 medium (Lonza) with IL2 50 IU/ml DAY 1: Cells were plated in a 6-well plate at a density of 1 million cells in 2 ml/of media (as described above) and treated with different inhibitors
(§2) A second aliquot of the cells cultured for 13 days with all the treatments listed above (1-21) was washed with PBS+1% FBS, stained with CD8-PerCP, CD45RA-FITC, CCR7-PE and CD62L-APC (5% Y/100 μl/sample for each of 4 antibodies) at 4° C. for 1 h, washed twice with PBS+100 FBS and analyzed on flow cytometer to check if these drugs are enriching T stem cells showing surface expression of CD8+CD45RA+CCR7+CD62L+.
(§3) Day 0: Blood was obtained from unidentified donor. After RBC lysis, PBMC were collected using Ficoll-Hypaque separation. 200 million T cells were isolated from PBMCs using CD3 microbeads. T cells were cultured overnight in XVIVO 15 medium (Lonza) with IL2 (50 IU/ml), 30 ng/ml of CD3 and CD28 antibodies
(§4) Day 1: Cells were plated in 24-well plates at a density of 0.3 million cells/ml in each well and treated with different drugs.
(§5) On day 7, culture medium was replaced with fresh medium with fresh drugs.
(§6) On day 13, culture medium was replaced with fresh medium and fresh drugs. Half of the cells were transferred to 6-well plates.
as §2, with “14” for “13”, “above” for “above (1-21)”, “(5 ul/100 ul/sample” for “(5% Y/100 μl/sample”, “PBS+1%” for “PBS+100”, “enriching for” for “enriching”, “T” for “T stem”

[2] = tested on: Pgp+ (DiOC2(3)-dye effluxing) T cells; test: DiOC2(3) dye efflux flow cytometry of inhibitor-treated T cells; conditions: for p2: pgp+ from Live cells: treatment for 13 days, IL2 + CD3 and CD28 antibodies
Method: (§7) The use of P-glycoprotein (Pgp)-mediated efflux of DiOC2(3) to isolate stem like T cells for adoptive cellular therapy has been described in application no. […] In the following examples, DiOC2(3) staining was used to study the effect of different inhibitors on generation of stem like T cells.
as §1
(§8) The cell growth medium was changed in 6-well plates and fresh drugs were added at same concentration for one more week.
(§9) […] (DAY 11): Culture medium was changed and fresh drugs were added in 6-well plates.
(§10) Subsequently, cells were washed with RPMI medium and dye was effluxed at 37° C. for 90 min. Cells were washed with […], stained with CD62L-APC (5 μl/100 μl/sample) at 4° C. for 1 h, washed twice with PBS+1% FBS and analyzed on flow cytometer to check if these drugs treatment leads to increase in Pgp+/CD62L positive population.
as §3, §4, §5, §6
(§11) Day 14: An aliquot of cells with all the treatments listed above (for 13 days) was used to stain the cells with DiOC2(3) (60 ng/ml in RPMI medium) at 4° C. for 40 min, washed with RPMI medium, DiOC2(3) dye was effluxed at 37° C. for 90 min, washed with PBS+1% FBS, stained with CD62L-APC antibody. CD62L is a marker for resting T cells. (5 μl/100 μl/sample) at 4° C. for 1 h, washed twice with PBS+1% FBS and analyzed on flow cytometer to check if these drugs are affecting the dye-effluxing or Pgp+ (i.e., DiOC2(3)-dull) T-cell population.

[3] = tested on: CD8+CD45RA+CCR7+CD62L+ T cells; test: Flow cytometry for CD8, CD45RA, CCR7 and CD62L on inhibitor-treated T cells; conditions: for % of CD62L+CCR7+ double positive cells out of CD45RA+ cells in CD8+ T cell population: 13 days of treatment; for GATE P4 CD8(PerCP)+, CD45RA(FITC)+, CCR7 (PE)+, CD62L(APC): cells cultured for 14 days
Method: as §1, §2, §3, §4, §5, §6
as §2, with “14” for “13”, “above” for “above (1-21)”, “(5 ul/100 ul/sample” for “(5% Y/100 μl/sample”, “PBS+1%” for “PBS+100”, “enriching for” for “enriching”, “T” for “T stem”

[4] = tested on: Pgp+ (DiOC2(3)-dye effluxing cells) and CD62L+ T cells; test: DiOC2(3) dye efflux plus CD62L-APC staining, flow cytometry of inhibitor-treated T cells; conditions: for p5: double +ve pgp+ and CD62L-APC+ from Live cells: treatment for 13 days, IL2 + CD3 and CD28 antibodies
Method: as §7, §1, §8, §9, §10, §3, §4, §5, §6, §11

[5] = CD3-CD28-IL2 culture, inhibitor 10 nM
[6] = CD3-CD28-IL2 culture, inhibitor 100 nM
[7] = CD3-CD28-IL2 culture, inhibitor 200 nM
[8] = CD3-CD28 culture, inhibitor 10 nM
[9] = CD3-CD28 culture, inhibitor 100 nM
[10] = CD3-CD28 culture, inhibitor 200 nM
[11] = CD3-IL2 culture, inhibitor 10 nM
[12] = CD3-IL2 culture, inhibitor 100 nM
[13] = CD3-IL2 culture, inhibitor 200 nM

## CCN(c1cc(-c2ccc(CN3CCOCC3)cc2)cc(C(=O)NCc2c(C)cc(C)[nH]c2=O)c1C)C1CCOCC1 [Tazemetostat]
[1]; [5]
  % of CD62L+CCR7+ double positive cells out of CD45RA+ cells in live T cell population: 50.85%
[1]; [6]
  % of CD62L+CCR7+ double positive cells out of CD45RA+ cells in live T cell population: 67.51%
[1]; [7]
  % of CD62L+CCR7+ double positive cells out of CD45RA+ cells in live T cell population: 66.36%
[1]; [8]
  % of CD62L+CCR7+ double positive cells out of CD45RA+ cells in live T cell population: 77.81%
[1]; [9]
  % of CD62L+CCR7+ double positive cells out of CD45RA+ cells in live T cell population: 79.62%
[1]; [10]
  % of CD62L+CCR7+ double positive cells out of CD45RA+ cells in live T cell population: 78.45%
[1]; [11]
  % of CD62L+CCR7+ double positive cells out of CD45RA+ cells in live T cell population: 67.30%
[1]; [12]
  % of CD62L+CCR7+ double positive cells out of CD45RA+ cells in live T cell population: 63.89%
[1]; [13]
  % of CD62L+CCR7+ double positive cells out of CD45RA+ cells in live T cell population: 59.08%
[2]; CD3-CD28-IL2 culture, inhibitor 10 nM, 6 days of treatment
  % of Pgp+ cells out of live cells: 21.86%
[2]; CD3-CD28-IL2 culture, inhibitor 10 nM, 13 days of treatment
  % of Pgp+ cells out of live cells: 30.38%
[2]; CD3-CD28-IL2 culture, inhibitor 100 nM, 6 days of treatment
  % of Pgp+ cells out of live cells: 27.17%
[2]; CD3-CD28-IL2 culture, inhibitor 100 nM, 13 days of treatment
  % of Pgp+ cells out of live cells: 38.45%
[2]; CD3-CD28-IL2 culture, inhibitor 200 nM, 6 days of treatment
  % of Pgp+ cells out of live cells: 24.85%
[2]; CD3-CD28-IL2 culture, inhibitor 200 nM, 13 days of treatment
  % of Pgp+ cells out of live cells: 41.22%
[2]; CD3-CD28 culture, inhibitor 10 nM, 6 days of treatment
  % of Pgp+ cells out of live cells: 39.28%
[2]; CD3-CD28 culture, inhibitor 10 nM, 13 days of treatment
  % of Pgp+ cells out of live cells: 12.41%
[2]; CD3-CD28 culture, inhibitor 100 nM, 6 days of treatment
  % of Pgp+ cells out of live cells: 40.50%
[2]; CD3-CD28 culture, inhibitor 100 nM, 13 days of treatment
  % of Pgp+ cells out of live cells: 5.19%
[2]; CD3-CD28 culture, inhibitor 200 nM, 6 days of treatment
  % of Pgp+ cells out of live cells: 43.11%
[2]; CD3-CD28 culture, inhibitor 200 nM, 13 days of treatment
  % of Pgp+ cells out of live cells: 11.82%
[2]; CD3-IL2 culture, inhibitor 10 nM, 6 days of treatment
  % of Pgp+ cells out of live cells: 24.77%
[2]; CD3-IL2 culture, inhibitor 10 nM, 13 days of treatment
  % of Pgp+ cells out of live cells: 28.61%
[2]; CD3-IL2 culture, inhibitor 100 nM, 6 days of treatment
  % of Pgp+ cells out of live cells: 25.31%
[2]; CD3-IL2 culture, inhibitor 100 nM, 13 days of treatment
  % of Pgp+ cells out of live cells: 16.74%
[2]; CD3-IL2 culture, inhibitor 200 nM, 6 days of treatment
  % of Pgp+ cells out of live cells: 25.89%
[2]; CD3-IL2 culture, inhibitor 200 nM, 13 days of treatment
  % of Pgp+ cells out of live cells: 28.06%
[2]; culture with CD3 antibody, CD28 antibody and IL2, 6 days of treatment, 10 nM
  percentage of Pgp+ cells: 27.17%
[3]; [5]
  % of CD62L+CCR7+ double positive cells out of CD45RA+ cells in CD8+ T cell population: 62.73%
[3]; [6]
  % of CD62L+CCR7+ double positive cells out of CD45RA+ cells in CD8+ T cell population: 83.53%
[3]; [7]
  % of CD62L+CCR7+ double positive cells out of CD45RA+ cells in CD8+ T cell population: 80.78%
[3]; [8]
  % of CD62L+CCR7+ double positive cells out of CD45RA+ cells in CD8+ T cell population: 87.00%
[3]; [9]
  % of CD62L+CCR7+ double positive cells out of CD45RA+ cells in CD8+ T cell population: 88.26%
[3]; [10]
  % of CD62L+CCR7+ double positive cells out of CD45RA+ cells in CD8+ T cell population: 88.37%
[3]; [11]
  % of CD62L+CCR7+ double positive cells out of CD45RA+ cells in CD8+ T cell population: 82.23%
[3]; [12]
  % of CD62L+CCR7+ double positive cells out of CD45RA+ cells in CD8+ T cell population: 79.86%
[3]; [13]
  % of CD62L+CCR7+ double positive cells out of CD45RA+ cells in CD8+ T cell population: 77.35%
[4]; CD3-CD28-IL2 culture, inhibitor 10 nM, 6 days treatment
  % of Pgp+ CD62L+cells out of live cells: 8.42%
[4]; CD3-CD28-IL2 culture, inhibitor 10 nM, 13 days treatment
  % of Pgp+ CD62L+cells out of live cells: 8.03%
[4]; CD3-CD28-IL2 culture, inhibitor 100 nM, 6 days treatment
  % of Pgp+ CD62L+cells out of live cells: 13.16%
[4]; CD3-CD28-IL2 culture, inhibitor 100 nM, 13 days treatment
  % of Pgp+ CD62L+cells out of live cells: 12.57%
[4]; CD3-CD28-IL2 culture, inhibitor 200 nM, 6 days treatment
  % of Pgp+ CD62L+cells out of live cells: 11.30%
[4]; CD3-CD28-IL2 culture, inhibitor 200 nM, 13 days treatment
  % of Pgp+ CD62L+cells out of live cells: 14.25%
[4]; CD3-CD28 culture, inhibitor 10 nM, 6 days treatment
  % of Pgp+ CD62L+cells out of live cells: 19.36%
[4]; CD3-CD28 culture, inhibitor 10 nM, 13 days treatment
  % of Pgp+ CD62L+cells out of live cells: 2.95%
[4]; CD3-CD28 culture, inhibitor 100 nM, 6 days treatment
  % of Pgp+ CD62L+cells out of live cells: 18.38%
[4]; CD3-CD28 culture, inhibitor 100 nM, 13 days treatment
  % of Pgp+ CD62L+cells out of live cells: 1.18%
[4]; CD3-CD28 culture, inhibitor 200 nM, 6 days treatment
  % of Pgp+ CD62L+cells out of live cells: 20.94%
[4]; CD3-CD28 culture, inhibitor 200 nM, 13 days treatment
  % of Pgp+ CD62L+cells out of live cells: 2.66%
[4]; CD3-IL2 culture, inhibitor 10 nM, 6 days treatment
  % of Pgp+ CD62L+cells out of live cells: 8.76%
[4]; CD3-IL2 culture, inhibitor 10 nM, 13 days treatment
  % of Pgp+ CD62L+cells out of live cells: 9.87%
[4]; CD3-IL2 culture, inhibitor 100 nM, 6 days treatment
  % of Pgp+ CD62L+cells out of live cells: 10.11%
[4]; CD3-IL2 culture, inhibitor 100 nM, 13 days treatment
  % of Pgp+ CD62L+cells out of live cells: 4.31%
[4]; CD3-IL2 culture, inhibitor 200 nM, 6 days treatment
  % of Pgp+ CD62L+cells out of live cells: 11.97%
[4]; CD3-IL2 culture, inhibitor 200 nM, 13 days treatment
  % of Pgp+ CD62L+cells out of live cells: 9.08%
[4]; culture with CD3 antibody, CD28 antibody and IL2, 6 days of treatment, 100 nM
  percentage of Pgp+CD62L+ cells: 13.168%

## COc1cc2c(NC3CCN(C(C)C)CC3)nc(N3CCC(F)(F)CC3)nc2cc1OCCCN1CCCC1 [UNC0642]
[1]; 10 nM
  GATE P6 CD45RA(FITC)+, CCR7 (PE)+, CD62L(APC): 63.95%
[1]; 100 nM
  GATE P6 CD45RA(FITC)+, CCR7 (PE)+, CD62L(APC): 75.75%
[2]; 10 nM
  p2: pgp+ from Live cells: 22.03
[2]; 100 nM
  p2: pgp+ from Live cells: 32.51
[3]; 10 nM
  GATE P4 CD8(PerCP)+, CD45RA(FITC)+, CCR7 (PE)+, CD62L(APC): 71.62%
[3]; 100 nM
  GATE P4 CD8(PerCP)+, CD45RA(FITC)+, CCR7 (PE)+, CD62L(APC): 82.37%
[4]; 10 nM
  p5: double +ve pgp+ and CD62L-APC+ from Live cells: 4.46
[4]; 100 nM
  p5: double +ve pgp+ and CD62L-APC+ from Live cells: 4.81
